Values of other authors in patent US7074355B2, “Process for dry granulation by agitative balling for the preparation of chemically stable, dry-flow, low compact, dust free, soluble spherical granules of phosphoroamidothioate” (United Phosphorus Ltd., priority 2003, dated 2006).

System: insects
Conditions: systemic and contact insecticide of moderate persistence

Structure (SMILES): COP(=O)(NC(C)=O)SC (stereo not shown) [Acephate]
- residual activity lasting: 10 to 15 days
